Activity calls are given as the source filed them.
Assays:
[1] = molecular target: Peroxisome proliferator-activated receptor gamma/Nuclear receptor coactivator 2 (Homo sapiens, UniProt P37231); assay type: functional;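 further: agonist potency for raising coactivator recruitment to the receptor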
[2] = molecular target: Peroxisome proliferator-activated receptor gamma/Nuclear receptor coactivator 3 (Homo sapiens, UniProt P37231); assay type: functional;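 further: agonist potency for raising coactivator recruitment to the receptor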
Chain of Peroxisome proliferator-activated receptor gamma/Nuclear receptor coactivator 3 (P37231 whole entry): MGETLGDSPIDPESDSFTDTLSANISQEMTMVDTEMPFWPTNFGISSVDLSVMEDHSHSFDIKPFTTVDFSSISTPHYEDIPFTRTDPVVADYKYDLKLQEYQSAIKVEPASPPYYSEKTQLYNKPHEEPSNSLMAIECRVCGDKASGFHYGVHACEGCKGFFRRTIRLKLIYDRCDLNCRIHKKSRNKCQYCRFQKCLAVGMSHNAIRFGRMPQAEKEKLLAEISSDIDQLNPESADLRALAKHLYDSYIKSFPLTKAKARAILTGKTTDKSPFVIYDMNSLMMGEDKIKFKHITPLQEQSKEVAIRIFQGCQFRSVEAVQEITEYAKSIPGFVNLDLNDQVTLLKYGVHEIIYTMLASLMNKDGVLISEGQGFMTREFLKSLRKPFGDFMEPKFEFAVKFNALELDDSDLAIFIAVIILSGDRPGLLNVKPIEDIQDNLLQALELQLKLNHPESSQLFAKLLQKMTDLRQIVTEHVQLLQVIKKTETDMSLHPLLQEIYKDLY
Chain of Peroxisome proliferator-activated receptor gamma/Nuclear receptor coactivator 3 (Q9Y6Q9 whole entry, further chain): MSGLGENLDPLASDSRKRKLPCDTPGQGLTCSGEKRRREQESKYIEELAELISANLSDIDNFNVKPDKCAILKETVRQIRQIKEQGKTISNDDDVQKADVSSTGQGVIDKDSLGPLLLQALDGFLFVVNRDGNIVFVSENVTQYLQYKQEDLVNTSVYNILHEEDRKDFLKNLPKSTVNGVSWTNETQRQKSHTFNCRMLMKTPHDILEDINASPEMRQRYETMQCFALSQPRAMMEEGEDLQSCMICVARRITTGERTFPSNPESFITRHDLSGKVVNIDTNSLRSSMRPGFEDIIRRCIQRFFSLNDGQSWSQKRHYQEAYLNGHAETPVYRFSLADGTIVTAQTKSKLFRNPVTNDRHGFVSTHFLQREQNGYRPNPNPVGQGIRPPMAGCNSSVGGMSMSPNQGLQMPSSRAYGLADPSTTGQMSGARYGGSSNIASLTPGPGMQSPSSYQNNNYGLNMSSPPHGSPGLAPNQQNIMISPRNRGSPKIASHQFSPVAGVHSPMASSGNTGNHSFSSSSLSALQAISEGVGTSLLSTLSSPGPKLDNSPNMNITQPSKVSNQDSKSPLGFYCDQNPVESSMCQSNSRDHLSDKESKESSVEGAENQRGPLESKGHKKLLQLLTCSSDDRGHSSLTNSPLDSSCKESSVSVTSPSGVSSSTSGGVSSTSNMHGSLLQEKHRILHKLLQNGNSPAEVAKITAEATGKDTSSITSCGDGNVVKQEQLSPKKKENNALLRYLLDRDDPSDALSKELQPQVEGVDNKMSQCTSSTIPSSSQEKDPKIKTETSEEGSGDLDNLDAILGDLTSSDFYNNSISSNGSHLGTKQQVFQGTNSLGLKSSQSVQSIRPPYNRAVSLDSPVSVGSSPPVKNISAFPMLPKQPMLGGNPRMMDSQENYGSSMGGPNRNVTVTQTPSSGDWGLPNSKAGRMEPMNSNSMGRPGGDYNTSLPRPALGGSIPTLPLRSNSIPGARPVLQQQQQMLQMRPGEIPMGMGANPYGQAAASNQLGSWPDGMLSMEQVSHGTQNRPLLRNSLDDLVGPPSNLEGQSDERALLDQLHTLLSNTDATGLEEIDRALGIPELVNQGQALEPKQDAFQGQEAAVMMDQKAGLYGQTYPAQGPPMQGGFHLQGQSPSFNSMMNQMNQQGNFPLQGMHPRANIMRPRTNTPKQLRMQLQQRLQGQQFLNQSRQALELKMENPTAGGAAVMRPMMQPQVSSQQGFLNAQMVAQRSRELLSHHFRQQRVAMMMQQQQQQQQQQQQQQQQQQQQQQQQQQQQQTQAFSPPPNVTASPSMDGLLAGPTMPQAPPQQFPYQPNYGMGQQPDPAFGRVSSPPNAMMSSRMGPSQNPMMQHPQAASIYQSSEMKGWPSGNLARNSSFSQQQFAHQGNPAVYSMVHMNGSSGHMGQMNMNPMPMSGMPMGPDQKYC

[3] = molecular target: Peroxisome proliferator-activated receptor gamma/Nuclear receptor coactivator 1 (Homo sapiens, UniProt P37231); assay type: functional;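 further: agonist potency as compounds enhance coactivator SRC-1 recruitment to PPARgamma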
Leucine aminopeptidase = molecular target: T1, Leucine aminopeptidase (Plasmodium falciparum 3D7, UniProt Q8IL11); test: P. falciparum M17LAP inhibitors, primary screen, biochemical, fluorogenic H-Leu-NHMec substrate, 1536-well (AID 1619); assay type: functional
T1 sequence (Q8IL11 whole entry): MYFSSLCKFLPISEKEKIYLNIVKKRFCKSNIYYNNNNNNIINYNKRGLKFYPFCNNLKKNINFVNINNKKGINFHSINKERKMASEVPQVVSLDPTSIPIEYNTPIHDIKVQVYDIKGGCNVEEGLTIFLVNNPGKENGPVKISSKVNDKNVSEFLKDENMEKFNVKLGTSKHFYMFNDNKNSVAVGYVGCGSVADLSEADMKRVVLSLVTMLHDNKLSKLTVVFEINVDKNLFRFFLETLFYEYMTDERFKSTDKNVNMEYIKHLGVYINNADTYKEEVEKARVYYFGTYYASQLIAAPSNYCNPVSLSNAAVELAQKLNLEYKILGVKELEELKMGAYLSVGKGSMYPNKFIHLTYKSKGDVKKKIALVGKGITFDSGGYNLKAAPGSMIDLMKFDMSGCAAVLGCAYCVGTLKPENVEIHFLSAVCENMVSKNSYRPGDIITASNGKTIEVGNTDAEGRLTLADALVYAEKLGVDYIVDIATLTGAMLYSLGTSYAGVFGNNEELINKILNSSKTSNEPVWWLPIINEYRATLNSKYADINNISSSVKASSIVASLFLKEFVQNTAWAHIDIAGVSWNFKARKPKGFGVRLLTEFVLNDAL

[4] = test system: Streptococcus sp. 'group A'; test: Streptococcus pyogenes SK(-)GAS viability under kanamycin – luminescence, BacTiterGlo, confirmation, counter-screen for streptokinase expression inhibitor project, dose response (AID 1900); assay type: functional, organism-based
Streptococcus = test: GAS UMAA2166 growth inhibition – luminescence, BacTiterGlo, counter-screen for streptokinase expression inhibitor project, dose response (AID 1915); assay type: functional, organism-based;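 further: potency for reduction of bacterial viability or growth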
Aminopeptidase N = molecular target: T2, Aminopeptidase N (Plasmodium falciparum FcB1/Columbia, UniProt O96935); test: malaria alanyl aminopeptidase activity blockers – biochemical, fluorogenic H-Leu-NHMec substrate, 1536-well (AID 1445); set-up: species or system Plasmodium falciparum 3D7, 3D7
T2 sequence (O96935 whole entry): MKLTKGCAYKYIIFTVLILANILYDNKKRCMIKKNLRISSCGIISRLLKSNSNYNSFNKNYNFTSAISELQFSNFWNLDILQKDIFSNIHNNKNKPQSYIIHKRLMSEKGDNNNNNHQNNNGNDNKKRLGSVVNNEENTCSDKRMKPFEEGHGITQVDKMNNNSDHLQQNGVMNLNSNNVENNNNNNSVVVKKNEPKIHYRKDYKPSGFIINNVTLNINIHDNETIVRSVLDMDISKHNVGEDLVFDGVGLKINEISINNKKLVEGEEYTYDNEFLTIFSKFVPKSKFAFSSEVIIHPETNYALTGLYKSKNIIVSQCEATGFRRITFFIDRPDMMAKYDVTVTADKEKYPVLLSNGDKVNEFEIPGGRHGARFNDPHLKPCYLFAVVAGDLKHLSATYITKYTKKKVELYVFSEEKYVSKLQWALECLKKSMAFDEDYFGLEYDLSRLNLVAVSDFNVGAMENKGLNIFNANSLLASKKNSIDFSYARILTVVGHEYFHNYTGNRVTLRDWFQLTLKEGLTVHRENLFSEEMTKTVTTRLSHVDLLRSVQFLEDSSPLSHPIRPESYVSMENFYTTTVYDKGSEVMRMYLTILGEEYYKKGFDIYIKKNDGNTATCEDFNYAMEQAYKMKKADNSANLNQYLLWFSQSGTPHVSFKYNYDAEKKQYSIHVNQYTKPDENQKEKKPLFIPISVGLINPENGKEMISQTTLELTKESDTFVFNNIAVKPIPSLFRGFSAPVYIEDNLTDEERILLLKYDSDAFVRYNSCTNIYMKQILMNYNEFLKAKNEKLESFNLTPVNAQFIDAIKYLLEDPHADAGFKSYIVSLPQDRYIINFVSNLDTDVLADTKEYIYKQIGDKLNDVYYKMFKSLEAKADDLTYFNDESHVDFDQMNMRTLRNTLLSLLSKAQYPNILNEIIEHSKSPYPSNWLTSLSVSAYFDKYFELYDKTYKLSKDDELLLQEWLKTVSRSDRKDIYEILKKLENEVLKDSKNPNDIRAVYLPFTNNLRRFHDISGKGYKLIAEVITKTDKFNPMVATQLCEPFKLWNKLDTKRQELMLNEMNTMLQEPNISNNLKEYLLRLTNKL

Streptokinase A = molecular target: T3, Streptokinase A (Streptococcus pyogenes serotype M1, UniProt P10520); test: viability-normalized secreted streptokinase activity reduction – plasminogen activation absorbance, OD405, dose response (AID 1914); assay type: functional, Streptococcus pyogenes M1 GAS;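 further: secreted streptokinase activity via plasminogen activation per viability signal from cell pellet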
T3 sequence (P10520 whole entry): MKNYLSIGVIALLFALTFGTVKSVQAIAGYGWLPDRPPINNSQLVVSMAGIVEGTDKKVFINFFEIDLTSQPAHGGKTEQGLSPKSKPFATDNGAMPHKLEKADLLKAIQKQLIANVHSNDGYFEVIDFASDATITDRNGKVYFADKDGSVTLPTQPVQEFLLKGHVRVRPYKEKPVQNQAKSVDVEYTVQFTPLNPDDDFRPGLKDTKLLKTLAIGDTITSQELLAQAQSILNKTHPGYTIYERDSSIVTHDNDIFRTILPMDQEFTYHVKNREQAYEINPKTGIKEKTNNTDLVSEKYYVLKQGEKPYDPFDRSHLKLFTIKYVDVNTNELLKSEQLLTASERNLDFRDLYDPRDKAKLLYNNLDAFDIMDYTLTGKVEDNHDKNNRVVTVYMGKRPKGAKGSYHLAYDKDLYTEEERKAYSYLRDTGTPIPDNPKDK

[5] = viability loss of HPDE-C7K cells – cell-based, fluorescence, HTS, primary screen (AID 431); assay type: functional; conditions: Homo sapiens
[6] = HPDE-C7 pancreatic duct cell viability loss – fluorescence, HTS (AID 430); assay type: functional, cell-based; conditions: Homo sapiens
Protein skinhead-1 = molecular target: T4, Protein skinhead-1 (Caenorhabditis elegans, UniProt P34707); assay type: functional
T4 sequence (P34707 whole entry): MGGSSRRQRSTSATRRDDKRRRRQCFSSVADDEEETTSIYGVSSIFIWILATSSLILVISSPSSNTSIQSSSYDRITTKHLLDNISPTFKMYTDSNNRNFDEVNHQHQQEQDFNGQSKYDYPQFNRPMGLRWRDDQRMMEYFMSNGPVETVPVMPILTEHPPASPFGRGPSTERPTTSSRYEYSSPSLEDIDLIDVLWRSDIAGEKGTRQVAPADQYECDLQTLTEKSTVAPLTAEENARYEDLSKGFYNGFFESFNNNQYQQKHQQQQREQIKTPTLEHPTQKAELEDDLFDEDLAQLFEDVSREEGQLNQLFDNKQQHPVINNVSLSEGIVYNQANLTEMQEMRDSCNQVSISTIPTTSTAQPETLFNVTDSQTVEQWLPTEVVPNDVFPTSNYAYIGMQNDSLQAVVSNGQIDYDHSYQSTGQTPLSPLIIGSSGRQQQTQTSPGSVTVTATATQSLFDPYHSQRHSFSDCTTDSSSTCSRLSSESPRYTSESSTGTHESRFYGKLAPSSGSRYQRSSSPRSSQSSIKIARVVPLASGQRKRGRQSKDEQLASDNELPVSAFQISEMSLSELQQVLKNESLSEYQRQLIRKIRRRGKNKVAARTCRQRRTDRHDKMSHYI

[7] = molecular target: T5, Histone-lysine N-methyltransferase NSD2 (Homo sapiens, UniProt O96028); assay type: biochemical
T5 sequence (O96028 whole entry): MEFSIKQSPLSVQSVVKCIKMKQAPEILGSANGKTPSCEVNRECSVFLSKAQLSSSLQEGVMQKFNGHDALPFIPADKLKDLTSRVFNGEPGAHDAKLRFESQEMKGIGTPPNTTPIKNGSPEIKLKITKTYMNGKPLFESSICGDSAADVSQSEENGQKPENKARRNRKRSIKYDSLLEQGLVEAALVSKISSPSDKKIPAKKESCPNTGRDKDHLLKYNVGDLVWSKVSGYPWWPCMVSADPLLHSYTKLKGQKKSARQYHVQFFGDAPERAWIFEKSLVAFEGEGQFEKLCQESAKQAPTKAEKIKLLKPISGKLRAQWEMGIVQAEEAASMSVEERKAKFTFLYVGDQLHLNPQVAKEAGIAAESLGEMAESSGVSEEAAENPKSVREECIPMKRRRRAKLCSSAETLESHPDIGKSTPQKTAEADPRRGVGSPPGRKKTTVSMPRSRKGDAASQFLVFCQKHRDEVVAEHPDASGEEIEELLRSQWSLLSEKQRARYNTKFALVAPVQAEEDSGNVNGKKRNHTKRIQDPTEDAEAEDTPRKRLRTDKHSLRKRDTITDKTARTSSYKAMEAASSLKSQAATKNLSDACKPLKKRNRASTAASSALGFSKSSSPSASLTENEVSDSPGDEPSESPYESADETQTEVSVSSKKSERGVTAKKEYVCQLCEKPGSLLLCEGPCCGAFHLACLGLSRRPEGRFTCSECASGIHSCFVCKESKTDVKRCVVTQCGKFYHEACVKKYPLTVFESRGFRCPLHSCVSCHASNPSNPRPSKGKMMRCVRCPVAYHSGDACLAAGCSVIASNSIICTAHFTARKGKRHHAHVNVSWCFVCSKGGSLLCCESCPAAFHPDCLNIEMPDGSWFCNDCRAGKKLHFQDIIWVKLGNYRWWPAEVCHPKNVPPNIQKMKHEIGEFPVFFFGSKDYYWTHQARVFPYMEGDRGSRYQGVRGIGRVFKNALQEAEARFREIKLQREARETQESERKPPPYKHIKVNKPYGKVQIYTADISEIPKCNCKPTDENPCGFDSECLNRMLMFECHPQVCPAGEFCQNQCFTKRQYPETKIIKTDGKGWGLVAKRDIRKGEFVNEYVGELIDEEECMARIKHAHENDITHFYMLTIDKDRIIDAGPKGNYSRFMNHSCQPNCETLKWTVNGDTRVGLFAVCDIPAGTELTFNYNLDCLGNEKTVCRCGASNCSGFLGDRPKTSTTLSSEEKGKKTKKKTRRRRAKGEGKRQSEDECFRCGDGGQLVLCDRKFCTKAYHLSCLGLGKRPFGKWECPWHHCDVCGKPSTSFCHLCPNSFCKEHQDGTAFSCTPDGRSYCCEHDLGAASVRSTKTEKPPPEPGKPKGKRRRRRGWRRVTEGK

Large T antigen = Large T antigen (Simian virus 40, UniProt P03070); assay type: functional, Betapolyomavirus macacae;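 further: Confirmatory-stage PubChem screen for compounds that inhibit SV40 T antigen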
Chain of Large T antigen (P03070 whole entry): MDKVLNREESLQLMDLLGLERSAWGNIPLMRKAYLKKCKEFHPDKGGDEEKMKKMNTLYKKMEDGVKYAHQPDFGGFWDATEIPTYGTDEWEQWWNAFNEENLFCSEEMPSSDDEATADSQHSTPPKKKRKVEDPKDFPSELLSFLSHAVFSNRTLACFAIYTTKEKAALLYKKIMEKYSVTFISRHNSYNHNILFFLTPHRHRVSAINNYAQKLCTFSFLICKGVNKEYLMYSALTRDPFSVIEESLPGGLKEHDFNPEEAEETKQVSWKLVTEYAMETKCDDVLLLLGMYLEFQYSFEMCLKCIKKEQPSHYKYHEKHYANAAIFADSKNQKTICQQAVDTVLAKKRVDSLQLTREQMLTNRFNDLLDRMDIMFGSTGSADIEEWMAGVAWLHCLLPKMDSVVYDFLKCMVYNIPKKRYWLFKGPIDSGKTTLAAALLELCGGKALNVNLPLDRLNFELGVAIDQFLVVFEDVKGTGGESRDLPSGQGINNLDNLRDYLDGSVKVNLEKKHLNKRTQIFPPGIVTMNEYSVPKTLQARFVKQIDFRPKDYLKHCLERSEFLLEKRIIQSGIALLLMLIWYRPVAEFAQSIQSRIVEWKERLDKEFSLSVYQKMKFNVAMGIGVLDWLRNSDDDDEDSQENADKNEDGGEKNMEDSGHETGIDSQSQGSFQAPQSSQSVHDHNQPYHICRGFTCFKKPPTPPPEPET

[8] = NIH3T3 cell viability loss – ATP luminescence, mouse fibroblasts, counter-screen, dose response (AID 2010); assay type: functional, cell-based;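 further: cells exposed to compound for about 90 hours before reading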
[9] = Trypanosoma cruzi growth suppression in host cells – NIH3T3 host cells, beta-gal luminescence, confirmation (AID 2044); assay type: functional, cell-based;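 further: intracellular parasites grown in NIH/3T3 mouse fibroblasts as host cells; luminescent beta-galactosidase reporter signal from transgenic T. cruzi replicating inside host cells; inhibitors lower the luminescence signal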

Chain of Peroxisome proliferator-activated receptor gamma/Nuclear receptor coactivator 2 (P37231 whole entry): as the sequence (P37231 whole entry) above
Chain of Peroxisome proliferator-activated receptor gamma/Nuclear receptor coactivator 2 (Q15596 whole entry, further chain): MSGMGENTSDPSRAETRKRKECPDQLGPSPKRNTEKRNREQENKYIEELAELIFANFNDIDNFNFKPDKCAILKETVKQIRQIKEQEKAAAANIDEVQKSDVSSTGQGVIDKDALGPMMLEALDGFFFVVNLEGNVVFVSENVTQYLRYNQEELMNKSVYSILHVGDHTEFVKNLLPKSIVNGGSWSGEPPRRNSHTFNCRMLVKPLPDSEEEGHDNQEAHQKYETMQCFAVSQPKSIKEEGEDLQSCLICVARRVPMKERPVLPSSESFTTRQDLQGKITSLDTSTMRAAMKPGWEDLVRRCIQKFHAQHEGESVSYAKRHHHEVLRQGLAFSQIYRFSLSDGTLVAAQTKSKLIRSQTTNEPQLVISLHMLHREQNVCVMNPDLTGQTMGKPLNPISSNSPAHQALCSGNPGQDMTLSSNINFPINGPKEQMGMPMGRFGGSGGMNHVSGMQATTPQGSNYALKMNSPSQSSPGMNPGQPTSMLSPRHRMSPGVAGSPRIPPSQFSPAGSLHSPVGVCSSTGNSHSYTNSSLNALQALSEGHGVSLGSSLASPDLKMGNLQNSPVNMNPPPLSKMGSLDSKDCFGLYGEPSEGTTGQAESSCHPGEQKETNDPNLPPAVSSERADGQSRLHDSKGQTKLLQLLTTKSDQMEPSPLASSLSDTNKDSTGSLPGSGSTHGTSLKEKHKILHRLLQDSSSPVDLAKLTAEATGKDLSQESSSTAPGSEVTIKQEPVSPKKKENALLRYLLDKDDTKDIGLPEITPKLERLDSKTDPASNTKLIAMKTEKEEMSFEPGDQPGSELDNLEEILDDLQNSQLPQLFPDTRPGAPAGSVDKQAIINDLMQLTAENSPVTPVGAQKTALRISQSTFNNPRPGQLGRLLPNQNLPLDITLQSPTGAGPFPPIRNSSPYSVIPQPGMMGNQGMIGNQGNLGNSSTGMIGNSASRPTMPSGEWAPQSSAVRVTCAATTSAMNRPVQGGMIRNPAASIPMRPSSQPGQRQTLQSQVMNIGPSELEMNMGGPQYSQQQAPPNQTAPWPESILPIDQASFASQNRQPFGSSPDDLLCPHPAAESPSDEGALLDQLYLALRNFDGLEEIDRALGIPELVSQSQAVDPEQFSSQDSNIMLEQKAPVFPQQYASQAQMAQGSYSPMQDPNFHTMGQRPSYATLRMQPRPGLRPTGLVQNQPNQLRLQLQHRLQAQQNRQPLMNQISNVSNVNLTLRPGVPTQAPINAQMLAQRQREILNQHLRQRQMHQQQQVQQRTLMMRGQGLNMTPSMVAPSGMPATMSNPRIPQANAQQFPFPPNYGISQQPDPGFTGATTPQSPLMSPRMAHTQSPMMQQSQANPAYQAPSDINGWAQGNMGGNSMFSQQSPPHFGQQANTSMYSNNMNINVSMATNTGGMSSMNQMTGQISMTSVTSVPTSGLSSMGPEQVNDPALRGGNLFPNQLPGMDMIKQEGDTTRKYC

Row | Compound | EC50 [1] | EC50 [2] | EC50 [3] | IC50 (Aminopeptidase N) | other results
1 | Cc1ccc(NC(=O)CN(C)C(=S)NC2CC2)cc1 | > 79.4 µM (not active) | > 79.4 µM (not active) | > 79.4 µM (not active) | – | –
2 | O=C(CCC1CCCN(C(=O)C2=CCCCC2)C1)N1CCN(c2ccccn2)CC1 (stereo unspecified) | > 79.4 µM (not active) | > 79.4 µM (not active) | > 79.4 µM (not active) | – | –
3 | Cc1csc(NC(=O)COCC(=O)O)c1-c1nc2ccccc2s1 | – | – | – | 17.1 µM (active) | IC50 (Leucine aminopeptidase): 35.1 µM (active); EC50 [4]: 5.48 µM (active); EC50 (Streptococcus): 22.3 µM (active); EC50 (Streptokinase A): > 150 µM (not active)
4 | CCc1nnc(NS(=O)(=O)c2ccc(NC(=S)NC(=O)/C=C/c3cccs3)cc2)s1 | > 79.4 µM (not active) | > 79.4 µM (not active) | > 79.4 µM (not active) | 79.4 µM (active) | IC50 (Leucine aminopeptidase): 9.13 µM (active)
5 | CCCCCCn1c(N2CCN(c3cccc(Cl)c3)CC2)nc2c1c(=O)[nH]c(=O)n2C | – | – | – | – | EC50 [5]: > 20 µM (not active); EC50 [6]: > 20 µM (not active); IC50 (Protein skinhead-1): > 100 µM (inactive)
6 | Cc1ccc2c(c1)c1nnc(SCC(=O)Nc3cccc(Cl)c3C)nc1n2CC(=O)O | – | – | – | 8.42 µM (active) | –
7 | O=C(CSc1ncnc2c1nnn2-c1ccc(F)cc1)NCc1ccco1 | > 79.4 µM (not active) | > 79.4 µM (not active) | > 79.4 µM (not active) | – | –
8 | CSC1=NSC2=NC(=O)/C(=C\c3coc4ccccc4c3=O)C(=N)N12 | – | – | – | – | AC50 [7]: 11.7 µM (active); IC50 (Large T antigen): 67.1 µM (active)
9 | CCCSc1nnc(NC(=O)c2nc(SC)ncc2Cl)s1 | – | – | – | 109 µM (active) | IC50 (Leucine aminopeptidase): 34.2 µM (active)
10 | CCN(CC)CCCCN1c2ccccc2Sc2ccccc21 | – | – | – | – | IC50 (Large T antigen): 14.2 µM (active)
11 | CC1(C)OC2OC(C(=O)N/N=C/c3cc(Br)ccc3O)C3OC(C)(C)OC3C2O1 (stereo unspecified) | – | – | – | 51.7 µM (active) | –
12 | C=CCN1C(=O)/C(=c2\sc3nc(=O)c(Cc4ccccc4Cl)nn3c2=O)c2ccccc21 | – | – | – | 57.4 µM (active) | –
13 | O=C(Nc1nc(-c2ccc(S(=O)(=O)N3CCCCCC3)cc2)cs1)c1cccs1 | 14.6 µM (not active) | 17.4 µM (not active) | 16.5 µM (not active) | – | EC50 [8]: 6.61 µM (active); EC50 [9]: 2.33 µM (active)
14 | OC[C@H]1O[C@@H](Oc2cc(O)cc(/C=C/c3ccc(O)cc3)c2)[C@H](O)[C@@H](O)[C@@H]1O [PICEID] | – | – | – | – | IC50 (Large T antigen): 11.2 µM (active)

Source: ChEMBL document CHEMBL1201862, “PubChem BioAssay data set” (2004)
